Reference: ChEMBL document CHEMBL1150538, “Anti HIV-1 activity of a hydrophilic cyclosporin derivative with improved binding affinity to cyclophilin A” (Bioorg Med Chem Lett, 1996)
In brackets after ≈: the same amount, converted by molar mass.

Columns and labels:
AIK-T4 = assay: In vitro inhibition of the cytopathic effect induced by HIV-1(IIIB) using the human T-cell leukemia virus transformed T4 cell line.; format: functional, cell-based
Mus musculus = organism: Mus musculus; assay: In vitro immunosuppressive activity relative to cyclosporin A was determined by using mouse mixed lymphocyte reaction; format: functional
Jurkat = assay: In vitro immunosuppressive activity relative to cyclosporin A using interleukin-2 reporter gene assay was determined in a Jurkat cell line; format: functional, Homo sapiens

Structure (SMILES) | IC50 (AIK-T4) [µg/mL] | Relative IC50 (Mus musculus) | Relative IC50 (Jurkat)
C/C=C/C[C@@H](C)[C@@H](O)[C@H]1C(=O)N[C@@H](CC)C(=O)N(C)[C@H](CO)C(=O)N(C)[C@@H](CC(C)(C)O)C(=O)N[C@@H](C(C)C)C(=O)N(C)[C@@H](CC(C)C)C(=O)N[C@@H](C)C(=O)N[C@H](C)C(=O)N(C)[C@@H](CC(C)C)C(=O)N(C)[C@@H](CC(C)C)C(=O)N(C)[C@@H](C(C)C)C(=O)N1C [listing 1 of 2 here] | 0.12 (≈ 0.0961 µM) | – | –
C/C=C/C[C@@H](C)[C@@H](O)[C@H]1C(=O)N[C@@H](CC)C(=O)N(C)[C@H](CO)C(=O)N(C)[C@@H](CC(C)(C)O)C(=O)N[C@@H](C(C)C)C(=O)N(C)[C@@H](CC(C)C)C(=O)N[C@@H](C)C(=O)N[C@H](C)C(=O)N(C)[C@@H](CC(C)C)C(=O)N(C)[C@@H](CC(C)C)C(=O)N(C)[C@@H](C(C)C)C(=O)N1C [listing 2 of 2 here] | – | >3333 | >770
